Source: the NIST ThermoML archive (doi:10.1016/j.jct.2017.06.001)
± gives the expanded uncertainty stated by the source.

Test: xn = mol fraction of the nth substance listed
Settings: 100 kPa, Liquid; for mass density: 303.15 K, Vibrating tube method; for speed of sound: 308.15 K, Frequency=5 MHz, Pulse-echo method

OCCCCCO [1,5-pentanediol] + O
mass density (x1 = 0.005): 995.24 ± 0.52 kg/m3
mass density (x1 = 0.0101): 995.18 ± 1 kg/m3
mass density (x1 = 0.0196): 995.46 ± 1 kg/m3
mass density (x1 = 0.0251): 995.87 ± 1 kg/m3
mass density (x1 = 0.0304): 996.33 ± 1 kg/m3
mass density (x1 = 0.05): 997.59 ± 1 kg/m3
mass density (x1 = 0.0769): 998.6 ± 1 kg/m3
mass density (x1 = 0.1002): 999.37 ± 1.1 kg/m3
mass density (x1 = 0.1438): 999.75 ± 1.1 kg/m3
mass density (x1 = 0.1845): 999.44 ± 1.1 kg/m3
mass density (x1 = 0.2503): 998.42 ± 1.2 kg/m3
mass density (x1 = 0.3): 997.34 ± 1.2 kg/m3
mass density (x1 = 0.3343): 996.61 ± 1.3 kg/m3
mass density (x1 = 0.4171): 994.93 ± 1.4 kg/m3
mass density (x1 = 0.454): 994.03 ± 1.4 kg/m3
mass density (x1 = 0.5003): 993 ± 1.5 kg/m3
mass density (x1 = 0.5362): 992.2 ± 1.5 kg/m3
mass density (x1 = 0.6177): 990.7 ± 1.7 kg/m3
mass density (x1 = 0.6478): 990.1 ± 1.7 kg/m3
mass density (x1 = 0.7025): 989.2 ± 1.8 kg/m3
mass density (x1 = 0.7504): 988.4 ± 1.9 kg/m3
mass density (x1 = 0.7927): 987.6 ± 2 kg/m3
mass density (x1 = 0.8605): 986.4 ± 2.1 kg/m3
mass density (x1 = 0.9004): 985.7 ± 2.2 kg/m3
mass density (x1 = 0.9496): 984.6 ± 2.3 kg/m3
mass density (x1 = 1): 983.6 ± 2.1 kg/m3
speed of sound (x1 = 0.0001): 1519.6 ± 1.1 m/s
speed of sound (x1 = 0.0003): 1520.1 ± 1.1 m/s
speed of sound (x1 = 0.0005): 1520.7 ± 1.1 m/s
speed of sound (x1 = 0.0007): 1521.5 ± 1.1 m/s
speed of sound (x1 = 0.001): 1522.4 ± 1.1 m/s
speed of sound (x1 = 0.0014): 1523.4 ± 1.1 m/s
speed of sound (x1 = 0.0018): 1524.7 ± 1.2 m/s
speed of sound (x1 = 0.0023): 1526.2 ± 1.2 m/s
speed of sound (x1 = 0.0028): 1527.9 ± 1.2 m/s
speed of sound (x1 = 0.0034): 1529.7 ± 1.2 m/s
speed of sound (x1 = 0.004): 1531.4 ± 1.2 m/s
speed of sound (x1 = 0.0047): 1533.5 ± 1.2 m/s
speed of sound (x1 = 0.0055): 1535.7 ± 1.2 m/s
speed of sound (x1 = 0.0064): 1538.1 ± 1.2 m/s
speed of sound (x1 = 0.0073): 1540.8 ± 1.2 m/s
speed of sound (x1 = 0.0083): 1543.6 ± 1.2 m/s
speed of sound (x1 = 0.0094): 1546.5 ± 1.2 m/s
speed of sound (x1 = 0.0105): 1549.3 ± 1.2 m/s
speed of sound (x1 = 0.0116): 1552.2 ± 1.2 m/s
speed of sound (x1 = 0.0129): 1555.4 ± 1.2 m/s
speed of sound (x1 = 0.0141): 1558.3 ± 1.2 m/s
speed of sound (x1 = 0.0154): 1561.5 ± 1.2 m/s
speed of sound (x1 = 0.0167): 1564.5 ± 1.2 m/s
speed of sound (x1 = 0.0181): 1567.6 ± 1.2 m/s
speed of sound (x1 = 0.0195): 1570.7 ± 1.2 m/s
speed of sound (x1 = 0.0211): 1574.1 ± 1.2 m/s
speed of sound (x1 = 0.0225): 1577 ± 1.2 m/s
speed of sound (x1 = 0.0238): 1579.8 ± 1.2 m/s
speed of sound (x1 = 0.0252): 1582.6 ± 1.2 m/s
speed of sound (x1 = 0.0268): 1585.5 ± 1.2 m/s
speed of sound (x1 = 0.0283): 1588.5 ± 1.2 m/s
speed of sound (x1 = 0.0298): 1591.2 ± 1.2 m/s
speed of sound (x1 = 0.0316): 1594.3 ± 1.2 m/s
speed of sound (x1 = 0.0336): 1597.7 ± 1.2 m/s
speed of sound (x1 = 0.0351): 1600.2 ± 1.2 m/s
speed of sound (x1 = 0.0367): 1602.6 ± 1.2 m/s
speed of sound (x1 = 0.0384): 1605.2 ± 1.2 m/s
speed of sound (x1 = 0.0403): 1608.1 ± 1.2 m/s
speed of sound (x1 = 0.0417): 1610 ± 1.2 m/s
speed of sound (x1 = 0.0436): 1612.7 ± 1.2 m/s
speed of sound (x1 = 0.0459): 1615.8 ± 1.2 m/s
speed of sound (x1 = 0.0481): 1618.5 ± 1.2 m/s
speed of sound (x1 = 0.0505): 1621.5 ± 1.2 m/s
speed of sound (x1 = 0.0528): 1624 ± 1.2 m/s
speed of sound (x1 = 0.0551): 1626.6 ± 1.2 m/s
speed of sound (x1 = 0.0574): 1629 ± 1.2 m/s
speed of sound (x1 = 0.0594): 1631 ± 1.2 m/s
speed of sound (x1 = 0.062): 1633.4 ± 1.2 m/s
speed of sound (x1 = 0.0648): 1635.9 ± 1.2 m/s
speed of sound (x1 = 0.0671): 1637.9 ± 1.2 m/s
speed of sound (x1 = 0.0706): 1640.7 ± 1.2 m/s
speed of sound (x1 = 0.073): 1642.4 ± 1.2 m/s
speed of sound (x1 = 0.0758): 1644.4 ± 1.2 m/s
